In PubChem BioAssay (NCI):
Where “and” joins values, the source holds several entries; their conditions need not be identical. Identical values can stand only once.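 96-well plates; 48 h exposure; 5 concentrations. Endpoints by linear interpolation between flanking doses. Not reached: highest tested concentration assigned. The concentration for 50% growth inhibition is given as GI50. TGI: total growth inhibition.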

How the values were obtained:
Test in all cases: inhibition of tumour cell growth, NCI panel, 48 h
COLO 205 colon = tested on: COLO 205 colon
HOP-62 NSCLC = tested on: HOP-62 NSCLC
MDA-MB-231 breast = tested on: MDA-MB-231 breast
MDA-MB-435 = tested on: MDA-MB-435
MDA-N = tested on: MDA-N
MOLT-4 leukemia = tested on: MOLT-4 leukemia
NCI-H522 lung = tested on: NCI-H522 lung
RXF 393 renal = tested on: RXF 393 renal
SF-268 CNS = tested on: SF-268 CNS
SF-539 CNS = tested on: SF-539 CNS
SK-MEL-2 melanoma = tested on: SK-MEL-2 melanoma
SNB-19 CNS = tested on: SNB-19 CNS
SW-620 colon = tested on: SW-620 colon
T-47D breast = tested on: T-47D breast
TK-10 renal = tested on: TK-10 renal
UACC-62 melanoma = tested on: UACC-62 melanoma
CCRF-CEM leukemia = tested on: CCRF-CEM leukemia

Row | Structure (SMILES) | TGI (COLO 205 colon) | TGI (HOP-62 NSCLC) | TGI (MDA-MB-231 breast) | TGI (MDA-MB-435) | TGI (MDA-N) | TGI (MOLT-4 leukemia) | TGI (NCI-H522 lung) | TGI (RXF 393 renal) | TGI (SF-268 CNS) | TGI (SF-539 CNS) | TGI (SK-MEL-2 melanoma) | TGI (SNB-19 CNS) | TGI (SW-620 colon) | TGI (T-47D breast) | TGI (TK-10 renal) | TGI (UACC-62 melanoma) | TGI (CCRF-CEM leukemia) | GI50 (MDA-MB-231 breast) | GI50 (MDA-MB-435) | GI50 (SK-MEL-2 melanoma)
1 | FC1(F)[Se]C2C3CCC(C3)C2C1(F)F (stereo not drawn) | > 100 µM | > 100 µM | > 100 µM | > 100 µM | > 100 µM | > 100 µM | > 100 µM | > 100 µM | > 100 µM | > 100 µM | > 100 µM | > 100 µM | > 100 µM | > 100 µM | > 100 µM | > 100 µM |  |  |  | 
2 | CC(=O)OCCn1cnc2c(NCC=C(C)C)ncnc21 | > 100 µM | > 100 µM | > 100 µM | > 100 µM | > 100 µM | > 100 µM | > 100 µM | > 100 µM | > 100 µM | > 100 µM |  | > 100 µM | > 100 µM | > 100 µM | > 100 µM |  | > 100 µM |  |  | 
3 | O=c1c2cc(-c3ccccc3)cnc2sn1-c1ccc(Br)cc1 | > 100 µM | > 100 µM | > 100 µM | > 100 µM | > 100 µM | > 100 µM | > 100 µM | > 100 µM | > 100 µM | > 100 µM | > 100 µM | > 100 µM | > 100 µM | > 100 µM |  | > 100 µM | > 100 µM |  |  | 
4 | COc1ccccc1Nc1nc2c([nH]1)c(=O)n(C)c(=O)n2C | > 10 µM | > 10 µM | > 10 µM | > 10 µM | > 10 µM | > 10 µM |  | > 10 µM | > 10 µM |  |  |  | > 10 µM | > 10 µM | > 10 µM | > 10 µM | > 10 µM |  |  | 
5 | CC1OC(OC2C(OC(=O)[C@]34CCC(C)(C)C[C@H]3C3=CC[C@@H]5[C@@]6(C)CC[C@H](OC7OC(C(=O)O)C(O)C(O)C7O)C(C)(C)[C@@H]6CC[C@@]5(C)[C@]3(C)C[C@H]4O)OCC(O)C2O)C(O)C(O)C1OC1OCC(O)C(O)C1O (stereo partly drawn) | 12.3 µM and 3.98 µM | 32.7 µM and 28.3 µM | 22.3 µM and 8.24 µM | 30.3 µM and 18.2 µM | 27.3 µM and 23.5 µM | 34.6 µM and 74.8 µM | 24.4 µM | 35.4 µM and 31.6 µM | 34.6 µM and 25.4 µM |  | 30.4 µM and 12.4 µM | 25.8 µM and 23.8 µM | 32.8 µM and 27.7 µM | 96.2 µM and 30.6 µM |  | 32.7 µM and 30.1 µM | 36.1 µM and 61.2 µM | 9.19 µM and 3.49 µM | 16 µM and 5.32 µM | 15.4 µM and 3.47 µM
6 | C[C@H](C1CC(C)(O)C(C)(O)C(O)O1)[C@H]1CC[C@H]2[C@@H]3[C@@H]4O[C@@H]4[C@@]4(O)CC=CC(=O)[C@]4(C)[C@H]3CC[C@]12C (stereo partly drawn) | > 50 µM | > 50 µM | > 50 µM | > 50 µM | > 50 µM | > 50 µM | > 50 µM | > 50 µM | > 50 µM |  | > 50 µM | > 50 µM | > 50 µM | > 50 µM | > 50 µM | > 50 µM | > 50 µM |  |  | 
7 | C=C(Cl)C(Cl)(CBr)CCC(Br)C(C)(C)Br (stereo not drawn) | 10.8 µM | 1.83 µM | 27.6 µM | 24.5 µM | 21.2 µM | 25.3 µM | 19.3 µM | 4.03 µM | 10.7 µM | 4.01 µM |  | 23.1 µM | 8.32 µM | 7.42 µM | 3.12 µM | 28.5 µM | 23.5 µM |  |  | 
8 | CCOC(=O)c1nc2cc(C(F)(F)F)ccc2nc1Oc1ccc(C#N)cc1 | > 100 µM |  | > 100 µM | > 100 µM | > 100 µM | > 100 µM | > 100 µM | > 100 µM | > 100 µM | > 100 µM | > 100 µM | > 100 µM | > 100 µM | > 100 µM | > 100 µM | > 100 µM | > 100 µM |  |  | 
9 | CO/C=C/C=C(\C#N)C(=O)OC | > 100 µM | > 100 µM | > 100 µM | > 100 µM | > 100 µM | > 100 µM | > 100 µM |  | > 100 µM | > 100 µM | > 100 µM | > 100 µM | > 100 µM | > 100 µM | > 100 µM | > 100 µM | > 100 µM |  |  | 
10 | Cc1ccc2c(c1)C(=C(C#N)C#N)CCCS2(=O)=O | > 100 µM | > 100 µM | > 100 µM | > 100 µM | > 100 µM | > 100 µM |  | > 100 µM | > 100 µM | > 100 µM | > 100 µM | > 100 µM | > 100 µM | > 100 µM | > 100 µM | > 100 µM | > 100 µM |  |  | 
11 | CSC12c3cc(C)n(-c4ccc([N+](=O)[O-])cc4)c3CC(C)(C)CN1C(=O)C2Oc1ccccc1 (stereo not drawn) | > 100 µM | > 100 µM | > 100 µM | > 100 µM | > 100 µM | > 100 µM |  | > 100 µM |  | > 100 µM | > 100 µM | > 100 µM | > 100 µM | > 100 µM |  | > 100 µM | > 100 µM |  |  | 
12 | CN=C1Nc2ccccc2C(=O)N2CSCC12 (stereo not drawn) | > 100 µM | > 100 µM | > 100 µM | > 100 µM | > 100 µM | > 100 µM | > 100 µM | > 100 µM | > 100 µM |  | > 100 µM | > 100 µM | > 100 µM | > 100 µM | > 100 µM | > 100 µM | > 100 µM |  |  | 
13 | CCOC(=O)C1(C#N)OC(=O)c2cnccc21 (stereo not drawn) | > 100 µM |  | > 100 µM | > 100 µM | > 100 µM | > 100 µM | > 100 µM | > 100 µM | > 100 µM | > 100 µM | > 100 µM | > 100 µM | > 100 µM | > 100 µM |  | > 100 µM | > 100 µM |  |  | 
14 | COc1ccc(S(=O)(=O)N2C(=O)CCC2C(=O)NC(N)=O)cc1 (stereo not drawn) | > 100 µM | > 100 µM | > 100 µM | > 100 µM | > 100 µM | > 100 µM | > 100 µM |  |  | > 100 µM | > 100 µM | > 100 µM | > 100 µM | > 100 µM | > 100 µM | > 100 µM | > 100 µM |  |  | 
